In PubChem BioAssay (NCI):
“And” between values parts separate entries of the source, which are not always exact repeats. Equal entries are not always repeated.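 Following 48 hours of exposure in 96-well plates, responses at five concentrations were used to interpolate endpoints linearly. GI50: concentration for 50% inhibition of growth. TGI is the concentration that stops growth completely.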 *1 amine or outer side, *2 acyl side, *3 side chain or, on linkers, in order; H or OH if unused. Where a SMILES comes first, the peptide text is derived from it. [ ]: non-standard residue; d: D form. X56 = CC[C@H](C)[C@H](OC(=O)[C@@H](C)[C@@H](CC)N[*:1])C(=O)[*:2]; X32 = C[C@H](N[*:1])C(=O)C(C)(C)C(=O)[*:2]; NMeY = CN[C@@H](Cc1ccc(O)cc1)C(=O)O; NMeL = CN[C@@H](CC(C)C)C(=O)O; NMeV = CN[C@H](C(=O)O)C(C)C

Tests used:
Assay in all cases: NCI tumour cell line growth inhibition, 48 h
HCT-15 colon = test system: HCT-15 colon
MALME-3M melanoma = test system: MALME-3M melanoma
HT29 colon = test system: HT29 colon
MDA-MB-231 breast = test system: MDA-MB-231 breast
CCRF-CEM leukemia = test system: CCRF-CEM leukemia
SNB-19 CNS = test system: SNB-19 CNS
COLO 205 colon = test system: COLO 205 colon
HOP-62 NSCLC = test system: HOP-62 NSCLC
U251 CNS = test system: U251 CNS
RXF 393 renal = test system: RXF 393 renal

Row | SMILES | GI50 (HCT-15 colon) [µM] | TGI (HCT-15 colon) [µM] | GI50 (MALME-3M melanoma) [µM] | TGI (MALME-3M melanoma) [µM] | GI50 (HT29 colon) [µM] | TGI (HT29 colon) [µM] | GI50 (MDA-MB-231 breast) [µM] | TGI (MDA-MB-231 breast) [µM] | GI50 (CCRF-CEM leukemia) [µM] | TGI (CCRF-CEM leukemia) [µM] | GI50 (SNB-19 CNS) [µM] | TGI (SNB-19 CNS) | GI50 (COLO 205 colon) [µM] | TGI (COLO 205 colon) [µM] | GI50 (HOP-62 NSCLC) [µM] | TGI (HOP-62 NSCLC) [µM] | GI50 (U251 CNS) [µM] | TGI (U251 CNS) | GI50 (RXF 393 renal) [µM] | TGI (RXF 393 renal)
1 | NC1=Nc2cc(OCCCN3Cc4ccccc4C3)c(OCC3CC3)cc2C12CCCC2 | 2.1 | 6.51 | 1.73 | 3.26 | 1.95 | 6.53 | 1.62 | 3.65 | 2.45 | 9.26 | 4.53 | 16.4 µM | 1.59 | 3.29 | 3.45 | 11.5 | 1.8 | 3.88 µM | 1.34 | 3.58 µM
2 | Fc1ccc2[nH]cc(SSc3c[nH]c4ccc(F)cc34)c2c1 | 2.1 | 22 | 14.6 | 34 | 5.46 | 23.9 | 4.17 | 26.8 | 2.54 | 8.56 | 5.21 | 22.1 µM | 3.83 | 17.4 | 6.33 | 57.2 | 3.82 | 28 µM | 0.659 | 17 µM
3 | COc1ccccc1-c1cc(=O)c2ccc(OC)c(OC)c2o1 |  | > 100 |  | > 100 |  | > 100 |  | > 100 |  | > 100 |  | > 100 µM |  | > 100 |  | > 100 |  | > 100 µM |  | > 100 µM
4 | C=C1C(=O)O[C@H]2[C@H]1CC/C(Cn1cc(-c3cc(C)c(C)cc3C)nn1)=C\CC[C@@]1(C)O[C@@H]21 | 0.201 | 0.548 | 1.43 | 3 | 0.502 | 1.91 | 1.11 | 2.62 | 0.458 | 2.65 | 3.9 | 15.9 µM | 0.643 | 2.15 | 1.77 | 3.97 | 1.53 | 2.91 µM | 0.962 | 2.21 µM
5 | CC[C@H](C)[C@@H]1OC(=O)[C@@H](C)[C@@H](CC)NC(=O)[C@H](C)NC(=O)C(C)(C)C(=O)[C@H](C)NC(=O)[C@H](Cc2ccc(OC)cc2)N(C)C(=O)[C@H](C(C)C)N(C)C(=O)CNC(=O)[C@H](CC(C)C)N(C)C(=O)CNC1=O (cyclo(A[X56]G[NMeL]G[NMeV][NMeY](Me)[X32])) | 0.222 | > 34.2 | 0.0304 |  |  | 13.2 |  | 0.792 | < 0.0152 |  | 0.211 | 0.492 µM and 0.688 µM | 0.034 | > 33.3 |  | 0.175 |  | 1.08 µM and 0.15 µM | 0.0274 | 0.0483 µM and 0.104 µM
6 | COc1cc(OC)c(C(=O)/C=C/c2cccc(OC(C)=O)c2)cc1CC=C(C)C | 5.74 | 14.4 | 10.6 | 33.3 | 5.92 | 17.3 | 13.1 | > 50 | 7 | 31 | 9.2 | 17.2 µM | 6.96 | 14.2 | 10.4 | 19.6 | 6.91 | 14.7 µM | 10.2 | 32.3 µM
7 | O=C1NN(c2ccccc2)C(=O)/C1=C/c1ccc(Br)o1 | 10.1 | 24.7 |  | 0.972 | 4.21 | 22.1 |  | 20.9 | 5.23 | 19.8 | 17.5 | 41.9 µM | 3.75 | 11.2 |  | 21.4 | 1.57 | 19.8 µM | 1.02 | 2.04 µM
8 | COc1ccc(OC)c2c(=S)c3ccccc3[nH]c12 |  | > 92.5 |  | > 100 |  | > 100 |  | > 100 |  | > 86.1 |  | > 100 µM |  | > 100 |  | > 100 |  | > 100 µM |  | > 100 µM
9 | COc1ccc2c(c1)C1(C(=O)N2)C(C#N)=C(c2ccccc2)Nc2c1c(-c1ccccc1)nn2-c1ccccc1 (stereo not drawn) | 11 | 26.8 | 1.73 | 3.84 | 2.34 | 5.82 | 2.33 | 5.81 | 2.9 | 10.4 | 3.95 | 15 µM | 2.42 | 5.83 | 2.28 | 7.07 | 2.8 | 7.12 µM | 1.93 | 5.3 µM
10 | CCNCCCn1c2c(c3ccc([N+](=O)[O-])cc3c1=O)C(=O)c1cc(OC)cnc1-2 | 0.184 | 1.26 | 0.162 | 0.715 | 0.0579 | 1.25 | 0.326 | 1.49 | 0.0366 | 1.23 | 0.0576 | 2.53 µM | 0.0874 | 1.67 | 0.107 | 1.89 | 0.0329 | 0.186 µM | 0.136 | 0.464 µM
11 | C=C1C(=O)O[C@H]2[C@H]1CC/C(COC(=O)c1ccccc1)=C\CC[C@@]1(C)O[C@@H]21 | 0.8 | 2.3 | 1.82 | 3.86 | 0.412 | 2.1 | 1.69 | 4.36 | 0.281 | 1.3 | 2.61 | 11.6 µM | 1.37 | 3.14 | 2.96 | 14.1 | 1.67 | 3.37 µM | 1.14 | 2.58 µM
12 | COC1=C(Br)C(=O)C2=C(C1=O)C1C3=C(C(=O)C=CC3=O)C2c2ccccc21 (stereo not drawn) | 20 | 42.6 | 27.8 | 56.8 | 31.9 | > 100 | 8.15 | 66.1 | 3.16 | > 100 | 16.6 | 43.3 µM | 12.3 | 44.9 | 25.9 | 47.6 | 4.31 | 22.2 µM | 18.3 | 37.5 µM
13 | COc1ccc(-c2csc(NC(=O)c3cc(O)c(O)c(O)c3)n2)cc1 | 6.63 | > 33.3 | 11.1 | > 33.3 | 18.6 | > 33.3 | 5.18 | > 33.3 | 1.55 | 17.6 | 6.02 | > 33.3 µM | 10.8 | > 33.3 | 8.92 | > 33.3 | 4.09 | > 33.3 µM | 7.31 | > 33.3 µM
14 | CN1CCN(c2ccc(C(=O)Nc3cc(-c4cccc(NS(=O)(=O)c5ccccc5)c4)[nH]n3)cc2)CC1 | 12.3 | 39.2 | 9.87 | 26.7 | 3.51 | 14.6 | 3.53 | 12.2 | 3.28 | 42.3 | 14.2 | 32.2 µM | 4.28 | 14.1 | 6.61 | 30.2 | 2.87 | 18.7 µM | 2.55 | 12.5 µM
15 | CNCCCNCCCN1C(=O)c2ccc3c4c(ccc(c24)C1=O)C(=O)N(CCCNCc1ccccc1OC)C3=O | 2.36 | 12.2 | 0.633 | 1.96 | 0.381 | 1.95 | 2.9 | 14 | 0.465 | 4.53 | 1.68 | 11.1 µM | 0.498 | 1.85 | 1.24 | 4.44 | 1.61 | 7.67 µM | 1.89 | 5.71 µM
16 | COc1ccc(-c2cc(=O)c3c(OC)c(OC)c(OC)c(OC)c3o2)c(OC)c1 |  | 86.1 |  | > 100 |  | 68.5 |  | > 100 |  | > 100 |  | > 100 µM |  | 34.3 |  | 70.6 |  | > 100 µM |  | 99.7 µM
17 | Nc1ncnc2c1cnn2Cc1ccc(Cl)cc1 |  | > 100 | > 100 | > 100 |  | > 100 |  | > 100 |  | > 100 |  | > 100 µM |  | > 100 | > 100 | > 100 |  | > 100 µM |  | > 100 µM
18 | Cn1c(=O)c(Oc2ccccc2)cc2cnc(NC3CCOCC3)nc21 | > 25 | > 25 | > 25 | > 25 | > 25 | > 25 | > 25 | > 25 | > 25 | > 25 | > 25 | > 25 µM | > 25 | > 25 | > 25 | > 25 | > 25 | > 25 µM | > 25 | > 25 µM
19 | COc1ccc(/C=C/NC=O)cc1 |  | > 100 |  | > 100 |  | > 100 |  | > 100 |  | > 100 |  | > 100 µM |  | > 100 |  | > 100 |  | > 100 µM |  | > 100 µM
20 | C=CC1=C(C)C2=NC1=CC1=NC(=CC3=C(C)C4=C(O)C(C(=O)OC)C(=C5NC(=C2)C(C)C5CCC(=O)OC)C4=N3)C(CC)=C1C (stereo not drawn) |  | > 100 |  | > 100 |  | > 100 |  | > 100 |  | > 100 |  | > 100 µM |  | > 100 |  | > 100 |  | > 100 µM |  | > 100 µM
21 | Cc1[nH]nc2c1N=C(c1ccccc1Cl)c1cc([N+](=O)[O-])ccc1N2 | 0.198 | > 25 | > 25 | > 25 | 0.979 | > 25 | 4.42 | > 25 | 0.76 | > 25 | > 25 | > 25 µM | 0.981 | > 25 | 1.02 | > 25 | 0.511 | > 25 µM | 0.245 | 1.92 µM
22 | NC1CCC(N[C@@H]2C[C@H]2c2ccccc2)CC1 (stereo partly drawn) | 74.4 | > 100 | 21.1 | 84.7 | 40.1 | > 100 | 23 | > 100 | 82.8 | > 100 | > 100 | > 100 µM | 73.4 | > 100 | 95.4 | > 100 | > 100 | > 100 µM | 59.2 | > 100 µM
23 | Cc1ccc(Sc2sc(-c3ccccc3)nc2[P+](c2ccccc2)(c2ccccc2)c2ccccc2)cc1 | 0.3 | 1.14 | 0.27 | 0.92 | 0.237 | 1.17 | 0.251 | 0.943 | 0.373 | 2 | 0.33 | 1.33 µM | 0.195 | 0.412 | 0.296 | 1.18 | 0.214 | 1.4 µM | 0.331 | 1.38 µM
24 | C/C(=N\N=C(N)N)C(CN(C)C)C(c1ccccc1)c1c(O)c2ccccc2oc1=O (stereo not drawn) |  | > 100 |  | > 100 |  | > 100 |  | > 100 |  | > 100 |  | > 100 µM |  | > 100 |  | > 100 |  | > 100 µM |  | > 100 µM
25 | O=C(Nc1cccc(-n2cc(-c3ccncc3)c(-c3ccc(O)c(Cl)c3)n2)c1)Nc1cccc(C(F)(F)F)c1 | 2.24 | 10.2 | 1.79 | 6.45 | 3.75 | 13.7 | 2.24 | 16.9 | 2.12 | 7.92 | 2.88 | 46.2 µM | 1.96 | 3.73 | 2.75 | 8.36 | 1.4 | 4.8 µM | 1.19 | 4.05 µM
26 | CCSc1nnc(-c2ccc3ccccc3c2O)n1-c1ccc(Cl)cc1 | 3.13 | > 100 | > 100 | > 100 | 16 | > 100 | > 100 | > 100 | 3.58 | > 100 | 5.84 | > 100 µM | 47.4 | > 100 | 22.1 | > 100 | 4.05 | > 100 µM | 42.3 | > 100 µM
27 | N#C/C(=C\c1ccc(Br)cc1)n1nnc2ccccc21 | 0.273 | 3.03 | 0.727 | 2.78 | 0.411 | 2.25 | 1.33 | 6.17 | 0.357 | 16.6 | 0.763 | 2.41 µM | 0.591 | 3.22 | 1.92 | 10.5 | 1.1 | 2.67 µM | 0.427 | 1.94 µM
